According to ChEMBL document CHEMBL1201862, “PubChem BioAssay data set” (2004):
Active and inactive are the calls of the source.

What was measured:
[1] = (§1) Counterscreen for antagonists of the orexin 1 receptor (OX1R; HCRTR1): Fluorescence-based cell-based high throughput dose response assay to identify antagonists of the parental CHO cell line. [Related pubchem assays (depositor defined):AID434989, AID435008, AID463079, AID485270, AID492963, AID492964, AID492965, AID493232, AID504699, AID504701]; type: functional
Orexin receptor type 2 [2] = biological target: T1, Orexin receptor type 2 (Homo sapiens, UniProt O43614); assay: Counterscreen assay for antagonists of the orexin 1 receptor (OX1R; HCRTR1): Fluorescence-based cell-based dose response assay for antagonists of the orexin 2 receptor (OX2R; HCRTR2), run by assay provider.; type: functional
T1 sequence (O43614 whole entry): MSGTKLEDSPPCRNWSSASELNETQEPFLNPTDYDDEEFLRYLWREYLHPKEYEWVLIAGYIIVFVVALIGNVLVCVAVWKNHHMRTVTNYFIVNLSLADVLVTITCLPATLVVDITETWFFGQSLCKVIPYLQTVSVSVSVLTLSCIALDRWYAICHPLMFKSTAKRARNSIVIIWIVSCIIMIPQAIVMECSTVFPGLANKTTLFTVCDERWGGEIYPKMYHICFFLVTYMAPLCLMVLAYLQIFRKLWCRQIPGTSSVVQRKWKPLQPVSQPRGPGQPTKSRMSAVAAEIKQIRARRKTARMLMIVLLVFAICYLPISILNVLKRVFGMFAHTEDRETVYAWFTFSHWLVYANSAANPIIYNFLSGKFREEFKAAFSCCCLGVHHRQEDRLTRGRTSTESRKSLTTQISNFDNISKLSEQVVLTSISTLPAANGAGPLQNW

[3] = THP-1 cell cytotoxicity, dose response, cytotoxicity control for Vif-APOBEC3G degradation inhibitor project, THP-1 cells (AID 1117359); type: functional; conditions: Human immunodeficiency virus 1, THP-1
Orexin receptor type 2 [4] = biological target: T1, Orexin receptor type 2; assay: Counterscreen assay for antagonists of the orexin 1 receptor (OX1R; HCRTR1): Homogeneous Time Resolved Fluorescence (HTRF)-based cell-based dose response assay for antagonists of the orexin 2 receptor (OX2R; HCRTR2), run by assay provider.; type: functional
[5] = biological target: T2, Orexin/Hypocretin receptor type 1 (Homo sapiens, UniProt O43613); assay: (§2) Fluorescence-based cell-based high throughput dose response assay for antagonists of the orexin 1 receptor (OX1R; HCRTR1). [Related pubchem assays (depositor defined):AID434989, AID435008, AID463079, AID485270, AID492963, AID492964, AID492965, AID493232, AID504717, AID504718]; type: functional
T2 sequence (O43613 whole entry): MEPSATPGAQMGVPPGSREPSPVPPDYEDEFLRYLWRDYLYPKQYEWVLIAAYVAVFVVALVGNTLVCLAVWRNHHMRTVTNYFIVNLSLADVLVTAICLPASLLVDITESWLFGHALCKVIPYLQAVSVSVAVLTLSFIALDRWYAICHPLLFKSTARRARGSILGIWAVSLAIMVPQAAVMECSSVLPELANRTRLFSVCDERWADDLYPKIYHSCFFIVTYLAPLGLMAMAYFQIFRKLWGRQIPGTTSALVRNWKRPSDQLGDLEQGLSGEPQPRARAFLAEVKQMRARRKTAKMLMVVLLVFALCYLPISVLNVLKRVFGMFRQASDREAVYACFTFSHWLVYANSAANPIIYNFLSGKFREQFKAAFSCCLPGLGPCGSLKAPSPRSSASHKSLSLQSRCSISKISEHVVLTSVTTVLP

CHO-K1 = assay: as §1, with “Homogeneous time resolved fluorescence (HTRF)-based” for “Fluorescence-based”, “cell-based” for “cell-based high throughput”, “CHO-K1” for “CHO”; type: functional; conditions: Cricetulus griseus;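 further: potency for inhibition of ATP-stimulated IP1 production as antagonists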
[6] = biological target: T2, Orexin/Hypocretin receptor type 1; assay: as §2, with “Homogeneous Time Resolved Fluorescence (HTRF)-based” for “Fluorescence-based”; type: functional
[7] = biological target: ATP-dependent translocase ABCB1 (Homo sapiens, UniProt P08183); assay: ABCB1 efflux pump inhibitor potency, dose response, Jurkat-DNR cells, JC-1, flow cytometry (AID 1689); type: functional
[8] = AlphaScreen signal interference compounds, dose response, artefact control for ARNT-TACC3 interaction inhibitor project, biochemical, luminescence, cherry-pick (AID 651705); type: functional;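 further: AlphaScreen bead proximity signal that flags compounds interfering with the detection technology; potency reflects signal decrease which marks the compound as an assay artifact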
[9] = A Cell Based Secondary Assay To Explore Cytotoxicity of Compounds that Sensitize Mycobacterium Tuberculosis to Beta-Lactam Antibiotics.; type: functional
Melanocortin receptor 4 = Melanocortin receptor 4 (Homo sapiens, UniProt P32245); type: functional, cell-based;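 further: Cell-based assay with luminescence read-out, confirmatory dose-response testing for agonist activity of biased ligands at MC4R; human U2OS cells with tagged receptor and beta-arrestin; potency of agonists that increase receptor coupling to beta-arrestin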
Interleukin-8 [10] = biological target: T3, Interleukin-8 (Homo sapiens, UniProt P10145); assay: Dose Response confirmation of uHTS small molecule hits for cystic fibrosis induced NFkb Inhibitors in a PAF-induced IL8 counterscreen.; type: functional; conditions: read-out: IC50_Mean
T3 sequence (P10145 whole entry): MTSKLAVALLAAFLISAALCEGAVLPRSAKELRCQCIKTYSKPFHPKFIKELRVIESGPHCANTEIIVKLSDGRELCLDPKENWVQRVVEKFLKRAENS

HEK293 [11] = assay: cells; type: functional, cell-based; conditions: Homo sapiens
Interleukin-8 [12] = biological target: T3, Interleukin-8; assay: Dose Response confirmation of uHTS small molecule hits for cystic fibrosis induced NFkb Inhibitors in a TNFa-induced IL8 counterscreen.; type: functional; conditions: read-out: IC50_Mean
[13] = biological target: Nucleotide-binding oligomerization domain-containing protein 2 (Homo sapiens, UniProt Q9HC29); assay: NOD2 signaling inhibitors, cell-based, luminescence, uHTS, HEK293 (AID 1566); type: functional
HEK293 [14] = assay: cells; type: functional, cell-based; conditions: Homo sapiens; remark: listed apart in the source
HEK293 [15] = assay: cells; type: functional, cell-based; conditions: Homo sapiens; remark: listed apart in the source
HEK293 [16] = assay: NOD2 signaling inhibitors in MDP-stimulated cells, cell-based, uHTS, luminescence (AID 2001); type: functional; conditions: Homo sapiens
HEK293 [17] = assay: NOD1 signaling inhibitors, primary screen, cell-based, luminescence, uHTS (AID 1578); type: functional; conditions: Homo sapiens

Sequence of Nucleotide-binding oligomerization domain-containing protein 2 (Q9HC29 whole entry, the tested form may be a part): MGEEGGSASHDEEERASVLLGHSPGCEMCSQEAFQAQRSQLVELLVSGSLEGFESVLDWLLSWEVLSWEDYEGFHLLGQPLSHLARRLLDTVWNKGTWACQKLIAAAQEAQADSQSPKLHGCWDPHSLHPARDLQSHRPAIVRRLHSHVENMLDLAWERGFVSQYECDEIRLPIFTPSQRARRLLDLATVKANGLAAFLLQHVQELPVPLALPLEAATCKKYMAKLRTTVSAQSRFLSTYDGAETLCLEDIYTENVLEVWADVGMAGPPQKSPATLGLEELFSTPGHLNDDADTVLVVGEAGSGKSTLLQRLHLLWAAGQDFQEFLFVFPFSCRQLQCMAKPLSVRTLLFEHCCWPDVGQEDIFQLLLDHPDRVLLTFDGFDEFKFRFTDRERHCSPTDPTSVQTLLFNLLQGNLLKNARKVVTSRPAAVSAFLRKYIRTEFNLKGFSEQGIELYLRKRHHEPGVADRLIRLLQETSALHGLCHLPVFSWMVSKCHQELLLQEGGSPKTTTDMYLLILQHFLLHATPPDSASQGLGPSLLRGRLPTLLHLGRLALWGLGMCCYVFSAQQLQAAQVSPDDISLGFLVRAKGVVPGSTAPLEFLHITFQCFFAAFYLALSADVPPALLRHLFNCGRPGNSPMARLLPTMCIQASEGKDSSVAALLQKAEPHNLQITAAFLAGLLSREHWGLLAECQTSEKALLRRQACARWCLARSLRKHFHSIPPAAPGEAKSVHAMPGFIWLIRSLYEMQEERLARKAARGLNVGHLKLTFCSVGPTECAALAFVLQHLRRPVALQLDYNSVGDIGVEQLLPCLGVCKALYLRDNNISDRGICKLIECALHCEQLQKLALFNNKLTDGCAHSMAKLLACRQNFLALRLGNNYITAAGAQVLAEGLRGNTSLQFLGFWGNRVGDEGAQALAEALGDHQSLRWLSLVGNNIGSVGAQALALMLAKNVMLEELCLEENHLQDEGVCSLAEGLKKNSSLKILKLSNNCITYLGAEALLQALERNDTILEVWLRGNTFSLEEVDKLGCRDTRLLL
Sequence of Melanocortin receptor 4 (P32245 whole entry): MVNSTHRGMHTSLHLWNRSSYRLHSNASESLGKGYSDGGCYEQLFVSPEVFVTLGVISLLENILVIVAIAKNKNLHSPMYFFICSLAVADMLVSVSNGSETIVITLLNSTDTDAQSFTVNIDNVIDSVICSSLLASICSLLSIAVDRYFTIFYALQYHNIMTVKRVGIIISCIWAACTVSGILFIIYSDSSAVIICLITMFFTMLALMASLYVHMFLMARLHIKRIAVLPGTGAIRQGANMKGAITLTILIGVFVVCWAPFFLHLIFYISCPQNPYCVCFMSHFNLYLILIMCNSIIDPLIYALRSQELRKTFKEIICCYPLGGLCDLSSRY
Sequence of ATP-dependent translocase ABCB1 (P08183 whole entry): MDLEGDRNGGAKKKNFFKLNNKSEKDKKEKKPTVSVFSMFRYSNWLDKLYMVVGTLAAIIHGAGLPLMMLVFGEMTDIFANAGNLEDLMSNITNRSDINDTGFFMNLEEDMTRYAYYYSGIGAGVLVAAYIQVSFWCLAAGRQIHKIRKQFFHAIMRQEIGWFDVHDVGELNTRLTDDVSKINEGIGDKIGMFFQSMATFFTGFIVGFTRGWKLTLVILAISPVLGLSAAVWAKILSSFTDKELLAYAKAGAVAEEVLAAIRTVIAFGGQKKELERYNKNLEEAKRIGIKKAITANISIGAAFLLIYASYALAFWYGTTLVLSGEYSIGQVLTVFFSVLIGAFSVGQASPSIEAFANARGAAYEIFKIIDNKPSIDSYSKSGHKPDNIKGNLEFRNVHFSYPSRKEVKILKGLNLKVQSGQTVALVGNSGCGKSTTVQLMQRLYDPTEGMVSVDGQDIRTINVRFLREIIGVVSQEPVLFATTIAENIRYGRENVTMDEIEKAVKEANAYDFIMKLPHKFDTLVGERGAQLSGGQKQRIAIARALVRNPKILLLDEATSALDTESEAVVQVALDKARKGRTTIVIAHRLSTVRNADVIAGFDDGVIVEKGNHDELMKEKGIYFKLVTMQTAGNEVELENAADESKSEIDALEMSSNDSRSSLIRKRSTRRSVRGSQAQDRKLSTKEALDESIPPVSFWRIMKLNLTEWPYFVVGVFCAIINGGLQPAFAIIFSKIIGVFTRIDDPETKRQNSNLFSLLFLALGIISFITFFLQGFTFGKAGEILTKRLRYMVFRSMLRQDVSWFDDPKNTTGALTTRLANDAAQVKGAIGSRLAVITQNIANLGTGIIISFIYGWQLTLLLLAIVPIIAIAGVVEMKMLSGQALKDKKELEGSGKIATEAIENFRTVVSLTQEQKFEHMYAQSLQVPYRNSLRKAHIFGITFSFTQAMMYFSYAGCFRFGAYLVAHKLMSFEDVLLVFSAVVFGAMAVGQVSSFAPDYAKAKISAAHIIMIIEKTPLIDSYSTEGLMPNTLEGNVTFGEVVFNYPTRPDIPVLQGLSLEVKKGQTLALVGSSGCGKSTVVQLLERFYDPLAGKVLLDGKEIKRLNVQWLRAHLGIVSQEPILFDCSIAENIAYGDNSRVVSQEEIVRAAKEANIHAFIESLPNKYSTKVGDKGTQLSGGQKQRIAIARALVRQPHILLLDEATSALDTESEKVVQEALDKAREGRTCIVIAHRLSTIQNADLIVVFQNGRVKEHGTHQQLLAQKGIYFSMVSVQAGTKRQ

Cc1c2ccccc2nc2c(F)c(N(C)C)c(F)c(F)c12
IC50 [1]: 19.7 µM (inactive)
IC50 (Orexin receptor type 2 [2]): 32.2 µM (inactive)
CC50 [3]: > 40 µM (active)
IC50 (Orexin receptor type 2 [4]): > 50 µM (inactive)
IC50 [5]: 2.19 µM (active)
IC50 (CHO-K1): > 66.2 µM (inactive)
IC50 [6]: 1.01 µM (active)

Cc1nc2cc(-c3cccc(F)c3)nn2c(N2CCN(C(=O)c3ccco3)CC2)c1C
EC50 [7]: 14.6 µM (inactive)

O=C(Nc1ccc(F)cc1)c1nc[nH]c1C(=O)O
AC50 [8]: 105 µM (active)

O=C(Nc1cccc(S(=O)(=O)NCc2ccco2)c1)c1cc(-c2ccc(F)cc2)nc2ccccc12
IC50 [1]: > 49.8 µM (inactive)
IC50 (Orexin receptor type 2 [2]): 9.9 µM (active)
IC50 (Orexin receptor type 2 [4]): > 50 µM (inactive)
CC50 [9]: 2.38 µM (active)
IC50 [5]: 17.2 µM (inactive)
IC50 (CHO-K1): > 66.2 µM (inactive)
IC50 [6]: 6.13 µM (active)

NC(Cc1ccc(Cl)cc1)c1csc(Nc2ccc(-c3ccccc3)nn2)n1 (stereo not given)
EC50 (Melanocortin receptor 4): > 89.2 µM (inactive)

CCSc1nsc(NC(=O)Nc2cccc(C(C)=O)c2)n1
IC50 (Interleukin-8 [10]): 5.42 µM (active)
IC50 (HEK293 [11]): 1.27 µM (active)
IC50 (Interleukin-8 [12]): 1.77 µM (active)
EC50 [13]: 6.47 µM (active)
IC50 (HEK293 [14]): > 20 µM (inactive)
IC50 (HEK293 [15]): > 20 µM (inactive)
IC50 (HEK293 [16]): 2.39 µM (active)
EC50 (HEK293 [17]): 4.27 µM (active)
